Results: patent publication US4968698A, “Nitrogen containing heterocyclic compounds” (Burroughs Wellcome Co., priority 1984, dated 1990)
Converted amounts (≈) assume the structure as drawn. Read-outs that look alike come from different tables or passages of the source.

System: Trichomonas vaginalis
Assay: In vitro activity against T. vaginalis (IC50 determination)
Assay type: cell-based
Conditions: 37° C., aerobic, Modified Diamonds Medium
Experimental: The antiprotozoal e.g. antitrichomonal, activity of the compounds of the present invention may be assessed by conventional methods, for example by determining the minimum inhibition concentration (m.i.c.) or 50% inhibition level (IC50).
Modified Diamonds Medium (MDM) was prepared according to the method described in J. Kulda et al., American Journal of Obstetrics and Gynaecology 1970, 108, 908-18 and 4 cm^3 of the medium was pipetted into each of a series of tubes (usually 16 tubes). To each tube was added 0.5 cm^3 of varying concentration of a solution (usually in ethanol+MDM) or suspension of the test drug. Duplicate tubes for each drug concentration were prepared.
Finally, to each tube was added T. vaginalis (0.5 cm^3) at a concentration of 1×10^5 cm^-3,) to give a final trichomonad concentration of 1×10^4 cm^-3 in each tube. The tubes were then incubated (aerobically) at 37° C. and the resulting trichomonad numbers were counted at 24 and 48 hours using a haemacytometer.
This information was then used to determine the 50% inhibition concentration (IC50).

[1] = 24 hr, 1×10^4 trichomonads cm^-3, read-out: IC50 24 hr
[2] = 48 hr, 1×10^4 trichomonads cm^-3, read-out: IC50 48 hr

Row | SMILES | IC50 [1] [µg/mL] | IC50 [2] [µg/mL]
1 | Cl/C(=C\c1ccccc1)C1=NCCc2cc(OCc3ccccc3)ccc21 [Example 151, (Z)-6-Benzyloxy-1-(1-chloro-2-phenylvinyl)-3,4-dihydroisoquinoline] | 0.3 (≈ 0.802 µM) | 0.3 (≈ 0.802 µM)
2 | CCCCCCOc1ccc2c(c1)CCN=C2C=Cc1ccccc1 [Example 74, 6-Hexyloxy-3,4-dihydro-1-styrylisoquinoline] | 3.3 (≈ 9.9 µM) | 0.9 (≈ 2.7 µM)
3 | CC(C)(C)c1ccc(COc2ccc3c(c2)CCN=C3C=Cc2ccc(Cl)cc2Cl)cc1 [Example 81, 6-(4-t-Butylbenzyloxy)-1-(2,4-dichlorostyryl)-3,4-dihydroisoquinoline] | 1.1 (≈ 2.37 µM) | 1.6 (≈ 3.45 µM)
4 | C/C=C/C=C/C1=NCCc2cc(OCCCCCC)ccc21 [Example 129, (E,E)-6-Hexyloxy-3,4-dihydro-1-(penta-1,3-dienyl)isoquinoline] | 2.9 (≈ 9.75 µM) | 3.1 (≈ 10.4 µM)
5 | CCCCOc1ccc2c(c1)CCN=C2/C(C)=C/c1ccccc1 [Example 153, (E)-6-Butyloxy-3,4-dihydro-1-(2-phenyl-1-methylvinyl)isoquinoline] | 0.3 (≈ 0.939 µM) | 0.5 (≈ 1.57 µM)
6 | CCCOc1cc2c(cc1OCCC)C(C=Cc1ccc(Cl)cc1Cl)=NCC2 [Example 155, 1-(2,4-Dichlorostyryl)-3,4-dihydro-6,7-dipropyloxyisoquinoline] | 1.2 (≈ 2.87 µM) | 2.2 (≈ 5.26 µM)
7 | CC(C)(C)c1ccc(Oc2ccc3c(c2)CCN=C3C=Cc2ccccc2)cc1 [Example 73, 6-(4-t-Butylphenoxy)-3,4-dihydro-1-styrylisoquinoline] | 0.4 (≈ 1.05 µM) | 1.1 (≈ 2.88 µM)
8 | CCCCOc1ccc2c(c1)CCN=C2/C=C/c1cccc2ccccc12 [Example 135, (E)-6-Butyloxy-3,4-dihydro-1-[2-(1-naphthyl)vinyl]isoquinoline] | 1.3 (≈ 3.66 µM) | 1.6 (≈ 4.5 µM)
9 | CCCCOc1ccc2c(c1)CCN=C2C=Cc1ccccc1Cl [Example 12, 6-Butyloxy-1-(2-chlorostyryl)-3,4-dihydroisoquinoline] | 1.2 (≈ 3.53 µM) | 2 (≈ 5.88 µM)
10 | CCCCOc1ccc2c(c1)CCN=C2/C(Cl)=C/c1ccccc1 [Example 150] | 0.2 (≈ 0.588 µM) | 0.2 (≈ 0.588 µM)
11 | C(=C\c1cccs1)/C1=NCCc2cc(OCc3ccccc3)ccc21 [Example 104, (E)-6-Benzyloxy-3,4-dihydro-1-[2-(2-thienyl)vinyl]isoquinoline] | 7.4 (≈ 21.4 µM) | 7.3 (≈ 21.1 µM)
12 | CCCCOc1cc2c(cc1OCCCC)C(C=Cc1ccc(Cl)cc1)=NCC2 [Example 157, 6,7-Dibutyloxy-1-(4-chlorostyryl)-3,4-dihydroisoquinoline] | 1.8 (≈ 4.37 µM) | 2.1 (≈ 5.1 µM)
13 | Clc1ccc(C=CC2=NCCc3cc(OCc4ccccc4)c(OCc4ccccc4)cc32)c(Cl)c1 [Example 170, 6,7-Bisbenzyloxy-1-(2,4-dichlorostyryl)-3,4-dihydroisoquinoline] | 1 (≈ 1.94 µM) | 3.2 (≈ 6.22 µM)
14 | CCCc1c(O)c(OC)cc2c1CCN=C2C=Cc1ccccc1Cl [Example 180, 1-(2-Chlorostyryl)-3,4-dihydro-6-hydroxy-7-methoxy-5-propylisoquinoline] | 1 (≈ 2.81 µM) | 1.6 (≈ 4.5 µM)
15 | CC=CC1=NCCc2cc(OCCC)ccc21 [Example 137, 3,4-Dihydro-1-prop-1-enyl-6-propyloxyisoquinoline] | 1 (≈ 4.36 µM) | 1.7 (≈ 7.41 µM)
16 | CCCCOc1ccc2c(c1)CCN=C2/C=C/c1cccs1 [Example 105, (E)-6-Butyloxy-3,4-dihydro-1-[2-(2-thienyl)vinyl]isoquinoline] | 2 (≈ 6.42 µM) | 6.7 (≈ 21.5 µM)
17 | Clc1ccc(C=CC2=NCCc3cc(OCc4ccc(Cl)cc4Cl)ccc32)c(Cl)c1 [Example 92, 6-(2,4-Dichlorobenzyloxy)-1-(2,4-dichlorostyryl)-3,4-dihydroisoquinoline] | 0.5 (≈ 1.05 µM) | 1 (≈ 2.1 µM)
18 | C(=Cc1ccccc1)C1=NCCc2c1ccc(OCc1ccccc1)c2OCc1ccccc1 [Example 171, 5,6-Bis(benzyloxy)-3,4-dihydro-1-styrylisoquinoline] | 0.8 (≈ 1.8 µM) | 1.8 (≈ 4.04 µM)
19 | CCCOc1ccc2c(c1)CCN=C2/C=C/c1ccc([N+](=O)[O-])o1 [Example 113, (E)-3,4-Dihydro-6-propyloxy-1-[2-(5-nitro-2-furyl)]vinyl isoquinoline] | 0.7 (≈ 2.14 µM) | 1.2 (≈ 3.68 µM)
20 | CC(C)(C)c1ccc(Oc2ccc3c(c2)CCN=C3C=Cc2ccc(Cl)cc2Cl)cc1 [Example 71, 6-(4-t-Butylphenoxy)-1-(2,4-dichlorostyryl)-3,4-dihydroisoquinoline] | 0.8 (≈ 1.78 µM) | 1.4 (≈ 3.11 µM)
21 | CCCCOc1cc2c(cc1OCC)C(C=Cc1ccc(Cl)cc1Cl)=NCC2 [Example 160, 6-Butyloxy-1-(2,4-dichlorostyryl)-7-ethoxy-3,4-dihydroisoquinoline] | 0.6 (≈ 1.43 µM) | 1 (≈ 2.39 µM)

Row | SMILES | IC50 [1] [µg/mL] | IC50 [2] [µg/mL]
22 | C(=Cc1ccc(-c2ccccc2)cc1)C1=NCCc2cc(OCc3ccccc3)ccc21 [Example 82] | 0.6 (≈ 1.44 µM) | 2 (≈ 4.81 µM)
23 | CCCCOc1cc2c(cc1OCC)CCN=C2C=Cc1ccc(Cl)cc1Cl [Example 161, 7-Butyloxy-1-(2,4-dichlorostyryl)-6-ethoxy-3,4-dihydroisoquinoline] | 0.7 (≈ 1.67 µM) | 1.4 (≈ 3.35 µM)
24 | CC(C)(C)c1ccc(COc2ccc3c(c2)CCN=C3C=Cc2ccccc2)cc1 [Example 80, 6-(4-t-Butylbenzyloxy)-3,4-dihydro-1-styrylisoquinoline] | 2.5 (≈ 6.32 µM) | 2.4 (≈ 6.07 µM)
25 | Clc1ccc(C=CC2=NCCc3c2ccc(OCc2ccccc2)c3OCc2ccccc2)cc1 [Example 172, 5,6-Bis(benzyloxy)-1-(4-chlorostyryl)-3,4-dihydroisoquinoline] | 0.7 (≈ 1.46 µM) | 2 (≈ 4.17 µM)
26 | COc1ccc(C=CC2=NCCc3cc(OCc4ccccc4)ccc32)c(OC)c1 [Example 56, 6-Benzyloxy-3,4-dihydro-1-(2,4-dimethoxystyryl)isoquinoline] | 8 (≈ 20 µM) | 8 (≈ 20 µM)
27 | CCCCOc1ccc2c(c1)CCN=C2C=Cc1ccc(-c2ccccc2)cc1 [Example 24, 6-Butyloxy-3,4-dihydro-1-(4-phenylstyryl)isoquinoline] | 1.2 (≈ 3.15 µM) | 128 (≈ 336 µM)
28 | COc1ccc(OCc2ccccc2)c2c1C(C=Cc1ccc(C#N)cc1)=NCC2 [Example 175, 5-Benzyloxy-1-(4-cyanostyryl)-3,4-dihydro-8-methoxyisoquinoline] | 0.4 (≈ 1.01 µM) | 1 (≈ 2.54 µM)
29 | CC(C)(C)CCOc1ccc2c(c1)CCN=C2C=Cc1ccc(Cl)cc1Cl [Example 33, 1-(2,4-Dichlorostyryl)-3,4-dihydro-6-(3,3-dimethylbutyloxy)isoquinoline] | 0.7 (≈ 1.74 µM) | 1 (≈ 2.49 µM)
30 | Clc1ccc(C=CC2=NCCc3cc(Oc4ccccc4)ccc32)cc1 [Example 65, 1-(4-Chlorostyryl)-3,4-dihydro-6-phenoxy-isoquinoline] | 1.2 (≈ 3.33 µM) | 1.6 (≈ 4.45 µM)
31 | CCCOc1cc2c(cc1OCCC)C(C=Cc1ccc(Cl)cc1Cl)=NC(C)C2 (stereo not shown) [Example 158, 1-(2,4-Dichlorostyryl)-3,4-dihydro-3-methyl-6,7-dipropyloxyisoquinoline] | 0.8 (≈ 1.85 µM) | 1.1 (≈ 2.54 µM)
32 | C=CCCOc1ccc2c(c1)CCN=C2C=Cc1ccc(Cl)cc1Cl [Example 46, 6-(But-3-enyloxy)-1-(2,4-dichlorostyryl)-3,4-dihydroisoquinoline] | 1.1 (≈ 2.95 µM) | 1.3 (≈ 3.49 µM)
33 | C(/C=C/c1ccccc1)=C\C1=NCCc2cc(OCc3ccccc3)ccc21 [Example 126, (E,E)-6-Benzyloxy-3,4-dihydro-1-(4-phenylbuta-1,3-dienyl)isoquinoline] | 1.5 (≈ 4.1 µM) | 1.7 (≈ 4.65 µM)
34 | Clc1ccc(COc2ccc3c(c2)CCN=C3C=Cc2ccc(Cl)cc2Cl)cc1 [Example 85, 6-(4-Chlorobenzyloxy)-1-(2,4-dichlorostyryl)-3,4-dihydroisoquinoline] | 1.1 (≈ 2.48 µM) | 1.5 (≈ 3.39 µM)
35 | CCCCOc1ccc2c(c1)CCN=C2C=Cc1ccc(OC)cc1OC [Example 14, 6-Butyloxy-3,4-dihydro-1-(2,4-dimethoxystyryl)isoquinoline] | 5.5 (≈ 15 µM) | 8 (≈ 21.9 µM)
36 | Brc1csc(/C=C/C2=NCCc3cc(OCc4ccccc4)ccc32)c1 [Example 108, (E)-6-Benzyloxy-3,4-dihydro-1-[2-(4-bromo-2-thienyl)vinyl]isoquinoline] | 2.7 (≈ 6.36 µM) | 6.1 (≈ 14.4 µM)
37 | O=[N+]([O-])c1ccc(/C=C/C2=NCCc3cc(OCc4ccccc4)ccc32)o1 [Example 115, (E)-6-Benzyloxy-3,4-dihydro-1-[2-(5-nitro-2-furyl)]vinyl isoquinoline] | 0.4 (≈ 1.07 µM) | 1 (≈ 2.67 µM)
38 | COc1ccc(OCc2ccccc2)c2c1C(C=Cc1ccccc1)=NCC2 [Example 174, 5-Benzyloxy-3,4-dihydro-8-methoxy-1-styryl-isoquinoline] | 1.4 (≈ 3.79 µM) | 2 (≈ 5.41 µM)
39 | CCCCOc1ccc2c(c1)CCN=C2C=Cc1ccc(C(C)(C)C)cc1 [Example 15, 6-Butyloxy-1-(4-t-butylstyryl)-3,4-dihydroisoquinoline] | 1.5 (≈ 4.15 µM) | 2.8 (≈ 7.74 µM)
40 | CCCc1c2c(cc(OC)c1OCc1ccccc1)C(C=Cc1ccc(Cl)cc1)=NCC2 [Example 176, 6-Benzyloxy-1-(4-chlorostyryl)-3,4-dihydro-7-methoxy-5-propylisoquinoline] | 1.7 (≈ 3.81 µM) | 3.1 (≈ 6.95 µM)
41 | C(=Cc1ccccc1)C1=NCCc2cc(OCc3ccccc3)ccc21 [Example 53, 6-Benzyloxy-3,4-dihydro-1-styrylisoquinoline] | 3.2 (≈ 9.43 µM) | 5.5 (≈ 16.2 µM)
